The source of these data is patent publication US9637592B2, “Vitamin functionalized gel-forming block copolymers for biomedical applications” (International Business Machines Corporation, priority 2013, dated 2017).

In assay [1] the test system is P. aeruginosa. As to the kind of experiment: killing efficiency / MBC. Type of assay: cell-based, Pseudomonas aeruginosa. The note with it: drug alone. The procedure: Procedure for hydrogels: E. coli, P. aeruginosa, S. aureus and C. albicans were obtained from ATCC and reconstituted from its lyophilized form according to the manufacturer's protocol. Bacterial samples were cultured in Tryptic Soy Broth (TSB) solution at 37° C. under constant shaking of 300 rpm. C. albicans was culture in yeast medium at room temperature under constant shaking of 70 rpm. Prior to treatment, the bacterial sample was first inoculated and cultured to enter into log growth phase. To prepare the antimicrobial hydrogels, cationic polymer was first dissolved in filtered HPLC water in a bio-hood. The resultant solution was then added to solid triblock copolymer for dissolution and left to stand 4 hours at room temperature for the formation of the hydrogels (Example 28 and Example 29). […]
[…] The concentration of bacterial solution was adjusted to give an initial optical density (O.D.) reading of approximately 0.07 at 600 nm wavelength on a microplate reader (TECAN, Switzerland), which corresponds to the concentration of McFarland 1 solution (3×10^8 CFU/mL) The bacterial solution was then diluted and an equal volume of bacterial suspension (3×10^5) was added into each well. […] The plates were incubated for 24 hours at 37° C. and the number of colony-forming units (CFU) was counted. […]

In assay [2] the test system is C. albicans. Type of assay: cell-based, Candida albicans. The note with it: solution, 5.0 mg/L (5 ppm).
Description: A stock solution of cationic polymer VE/PrBr(1:15) (5 mg) in sterile HPLC grade water (10 ml) was prepared having a final concentration of 500 mg/L (500 ppm). A second stock solution of fluconazole (1 mg) in sterile HPLC grade water (100 ml) was prepared having a final concentration of 10 mg/L (10 ppm). […] Formulation (2) was obtained by combining 125 microliters each of the stock solutions of cationic polymer and fluconazole and diluting the resulting solution with 750 microliters of sterile HPLC grade water.

Turning to Doxycycline [DXY], the “MBC against P. aeruginosa” value in assay [1] was 20 to 30 mg/L.

As for Fluconazole, the “killing efficiency against C. albicans” value in assay [2] came to 93.53%.
